Measurements as given in paper PMC10975434 (Pharmaceutics, 2024).
Residue numbers refer to the chain shown, from its start. “And” between values parts separate entries of the source, which are not always exact repeats. Equal values may be shown once. Read-outs that look alike come from different tables or passages of the source.

Tests used:
[1] = Estimated unbound maximum hepatic inlet concentration used for the static model
Method: (8) [I]h=fu,p×Cmax+Fa ×Fg×Ka×Dose/Qh ×Rb
For the static mechanistic modeling, hepatic blood flow (Qh) and enterocyte blood flow (Qen) were set to 1500 mL/min and 300 mL/min, respectively, and the blood-to-plasma concentration ratio (RB) was set to 0.4 [55].
C௠௔௫ ,௛௘௣௔௧௜௖ ௜௡௟௘௧ ,௨ ൌ f௨,௣ ൈ ቀC௠௔௫ ൅ ிೌ ൈ ி೒ ൈ ௄ೌ ൈ஽௢௦௘ொ೓ ൈ ோ್ቁ, where fu,p (unbound fraction in plasma) wa s set

UGT2B7 [2] = target: T1, UGT2B7 (Homo sapiens, UniProt P16662, Y268H)
T1 sequence (P16662 24-529 Y268H): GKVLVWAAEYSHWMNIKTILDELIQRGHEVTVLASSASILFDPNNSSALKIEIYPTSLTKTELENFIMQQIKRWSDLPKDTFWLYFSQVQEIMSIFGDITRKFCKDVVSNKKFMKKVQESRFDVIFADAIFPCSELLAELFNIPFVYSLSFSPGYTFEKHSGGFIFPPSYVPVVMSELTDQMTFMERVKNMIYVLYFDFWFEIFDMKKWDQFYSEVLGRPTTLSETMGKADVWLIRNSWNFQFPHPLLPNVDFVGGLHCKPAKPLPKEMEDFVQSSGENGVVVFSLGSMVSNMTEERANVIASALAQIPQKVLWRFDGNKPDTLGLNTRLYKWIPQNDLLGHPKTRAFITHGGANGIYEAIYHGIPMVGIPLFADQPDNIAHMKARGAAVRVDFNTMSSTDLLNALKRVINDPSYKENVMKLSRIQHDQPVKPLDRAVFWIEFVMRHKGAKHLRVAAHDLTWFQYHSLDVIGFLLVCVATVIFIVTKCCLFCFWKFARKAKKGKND

UGT2B7 [3] = target: T2, UGT2B7 (Homo sapiens, UniProt P16662)
T2 sequence (P16662 24-529): T1 sequence (P16662 24-529 Y268H) with H245Y

[4] = cited from earlier work
UGT2B7 [5] = target: T2, UGT2B7; assay: IC50 determination and calculated Ki, morphine glucuronidation in HLM
UGT2B7 [6] = target: T2, UGT2B7; assay: Inhibition screening of morphine glucuronidation in pooled human liver microsomes (HLM); conditions: 100 µM cannabinoid
UGT2B7 [7] = target: T1, UGT2B7; assay: IC50 determination, morphine glucuronidation in rUGT2B7-overexpressing HEK293 cell microsomes
UGT2B7 [8] = target: T1, UGT2B7; assay: Inhibition screening of morphine glucuronidation in rUGT2B7-overexpressing HEK293 cell microsomes; conditions: rUGT-overexpressing microsomes and HLM
[9] = cited from earlier work; for Cmax,u: after consumption; for ka (first-order absorption rate constant): ref Cox et al., 2019 [45]
UGT2B7 [10] = target: T1, UGT2B7; assay: in vitro
UGT2B7 [11] = target: T2, UGT2B7; assay: in vitro; conditions: human liver microsomes, probe morphine […] (morphine-6-glucuronide formation)
UGT2B7 [12] = test system: UGT2B7; design: method as in PMID 9715839; conditions: coadministration of zidovudine (AZT) and methadone; cited from earlier work
[13] = read-out: Cmax,hepatic inlet,u, THC dose 20 mg, Oral, estimated from Cmax of Bansal et al., 2022 [56]
[14] = read-out: Cmax,hepatic inlet,u, THC dose 25 mg, Inhalation, estimated from Cmax of Bansal et al., 2022 [56]
[15] = read-out: Cmax,hepatic inlet,u, THC dose 70 mg, Inhalation, estimated from Cmax of Bansal et al., 2022 [56]
[16] = read-out: Cmax,hepatic inlet,u, THC dose 100 mg, Inhalation, estimated from Cmax of Bansal et al., 2022 [56]
[17] = read-out: Cmax,hepatic inlet,u, THC dose 130 mg, Oral, estimated from Cmax of Bansal et al., 2022 [56]
[18] = read-out: Cmax,hepatic inlet,u, THC dose 160 mg, Oral, estimated from Cmax of Bansal et al., 2022 [56]
[19] = read-out: Calculated Ki, Morphine-3-Glucuronide, Ki=IC50/2 assuming competitive inhibition
[20] = read-out: Calculated Ki, Morphine-6-Glucuronide, Ki=IC50/2 assuming competitive inhibition
[21] = read-out: Calculated Ki,u, Morphine-3-Glucuronide, Ki corrected with fu,inc
[22] = read-out: Calculated Ki,u, Morphine-6-Glucuronide, Ki corrected with fu,inc
[23] = read-out: IC50,u, Morphine-3-Glucuronide formation, corrected for non-specific binding with fu,inc (11-OH-THC fu,inc as surrogate for 11-COOH-THC and 7-OH-CBD)
[24] = read-out: IC50,u, Morphine-6-Glucuronide formation, corrected for non-specific binding with fu,inc (11-OH-THC fu,inc as surrogate for 11-COOH-THC and 7-OH-CBD)
[25] = microsomes of HEK293 cells overexpressing recombinant UGT2B7, probe morphine […] (morphine-3-glucuronide formation)
[26] = microsomes of HEK293 cells overexpressing recombinant UGT2B7, probe morphine […] (morphine-6-glucuronide formation)

Row | Compound | Cmax [1, 13] | Cmax [1, 14] | Cmax [1, 15] | Cmax [1, 16] | Cmax [1, 17] | Cmax [1, 18] | IC50 (UGT2B7 [2]) | IC50 (UGT2B7 [3]) | Ki (UGT2B7 [5]; [19]) | Ki (UGT2B7 [5]; [20]) | Ki (UGT2B7 [5]; [21]) | Ki (UGT2B7 [5]; [22]) | IC50 (UGT2B7 [5]; [23]) | IC50 (UGT2B7 [5]; [24]) | inhibition of M3G and M6G formation in HLM (in words) (UGT2B7 [6]) | IC50 (UGT2B7 [7]; [23]) | IC50 (UGT2B7 [7]; [24]) | inhibition of UGT2B7-mediated morphine metabolism (overall, in words) (UGT2B7 [8]) | further results
1 | 11-hydroxy-Δ^9-tetrahydrocannabinol [11-OH-THC] | 20 nM | 10 nM | 30 nM | 50 nM | 100 nM | 120 nM | 12 ± 3.5 µM | 18 µM and 13 µM | 8.82 ± 8.42 µM | 6.61 ± 5.02 µM | 0.82 ± 0.79 µM | 0.62 ± 0.47 µM | 1.7 ± 1.6 µM | 1.2 ± 0.95 µM | significant inhibition | 0.96 ± 0.27 µM | 0.96 ± 0.28 µM | strong inhibition | unbound fraction (fu,inc) ([4]; HLM): 0.094; unbound fraction (fu,inc) ([4]; rUGT-overexpressing microsomes): 0.078
2 | C=C(C)[C@@H]1CCC(C(=O)O)=C[C@H]1c1c(O)cc(CCCCC)cc1O [7-COOH-CBD, 7-carboxy-cannabidiol] | – | – | – | – | – | – | – | – | – | – | – | – | – | – | weak to moderate inhibition | – | – | – | –
3 | C=C(C)[C@@H]1CCC(CO)=C[C@H]1c1c(O)cc(CCCCC)cc1O [7-OH-CBD, 7-hydroxy-cannabidiol] | – | – | – | – | – | – | 38 µM and 39 µM | – | 8.59 ± 3.05 µM | 3.99 ± 2.54 µM | 0.81 ± 0.29 µM | 0.38 ± 0.12 µM | 1.6 ± 0.57 µM | 0.75 ± 0.24 µM | significant inhibition | 3 ± 2.1 µM | 3 ± 0.7 µM | strong inhibition | Cmax ([1]; read-out: Cmax,hepatic inlet,u, CBD dose 70 mg, Oral, estimated from Cmax of Bansal et al., 2022 [56]): 30 nM; Cmax ([1]; read-out: Cmax,hepatic inlet,u, CBD dose 700 mg, Oral, estimated from Cmax of Bansal et al., 2022 [56]): 340 nM; Cmax ([1]; read-out: Cmax,hepatic inlet,u, CBD dose 2000 mg, Oral, estimated from Cmax of Bansal et al., 2022 [56]): 980 nM
4 | CCCCCc1cc(O)c2c(c1)OC(C)(C)[C@@H]1CCC(C(=O)O)=C[C@@H]21 [11-COOH-THC, 11-nor-9-carboxy-Δ^9-tetrahydrocannabinol] | 190 nM | 70 nM | 180 nM | 260 nM | 1220 nM | 1500 nM | 47 µM and 55 µM | 184 µM and 104 µM | 91.6 ± 18.5 µM | 52.1 ± 8.16 µM | 8.61 ± 1.74 µM | 4.89 ± 0.77 µM | 17 ± 3.5 µM | 9.8 ± 1.5 µM | weak to moderate inhibition | 3.7 ± 1.2 µM | 4.3 ± 1.2 µM | more moderate inhibition | –
5 | C=C(C)[C@@H]1CCC(C)=C[C@H]1c1c(O)cc(CCCCC)cc1O [CBD, cannabidiol, reference compound] | – | – | – | – | – | – | – | – | – | – | – | – | – | – | significant inhibition | – | – | strong inhibition | Cmax ([1]; human, hepatic inlet (unbound), inhaled or intranasal, 19 mg): 350 nM; Cmax ([1]; human, hepatic inlet (unbound), po, 70 mg): 90 nM; Cmax ([1]; human, hepatic inlet (unbound), po, 700 mg): 890 nM; Cmax ([1]; human, hepatic inlet (unbound), po, 2000 mg): 2540 nM; Cmax,u [9]: 130 nM; ka (first-order absorption rate constant) ([9]; value set for the static model): 0.02; inhibition at 100 µM (UGT2B7 [10]; [25]): 99%; inhibition at 100 µM (UGT2B7 [10]; [26]): 98%; IC50 (UGT2B7 [11]): 6.3 ± 2.6 µM; Ki (UGT2B7 [5]; human, human liver microsomes, probe morphine […] (morphine-3-glucuronide formation), Calculated Ki, Morphine-3-Glucuronide, Ki=IC50/2 assuming competitive inhibition): 4.11 ± 2.24 µM; IC50 (UGT2B7 [5]; human, human liver microsomes, probe morphine […] (morphine-3-glucuronide formation), IC50,u, Morphine-3-Glucuronide formation, corrected for non-specific binding with fu,inc (11-OH-THC fu,inc as surrogate for 11-COOH-THC and 7-OH-CBD)): 0.42 ± 0.23 µM; Ki (UGT2B7 [5]; human, human liver microsomes, probe morphine […] (morphine-6-glucuronide formation), Calculated Ki, Morphine-6-Glucuronide, Ki=IC50/2 assuming competitive inhibition): 3.16 ± 1.32 µM; Ki (UGT2B7 [5]; human, human liver microsomes, probe morphine […] (morphine-6-glucuronide formation), Calculated Ki,u, Morphine-6-Glucuronide, Ki corrected with fu,inc): 0.16 ± 0.07 µM; IC50 (UGT2B7 [5]; human, human liver microsomes, probe morphine […] (morphine-6-glucuronide formation), IC50,u, Morphine-6-Glucuronide formation, corrected for non-specific binding with fu,inc (11-OH-THC fu,inc as surrogate for 11-COOH-THC and 7-OH-CBD)): 0.32 ± 0.13 µM
6 | CCCCCc1cc(O)c2c(c1)OC(C)(C)c1ccc(C)cc1-2 [CBN, cannabinol] | – | – | – | – | – | – | – | – | – | – | – | – | – | – | did not exhibit appreciable inhibition | – | – | no significant inhibitory activity | inhibition at 100 µM (UGT2B7 [10]; [25]): 10%; inhibition at 100 µM (UGT2B7 [10]; [26]): 33%
7 | CCCCCc1cc(O)c2c(c1)OC(C)(C)[C@@H]1CCC(C)=C[C@@H]21 [THC, Δ^9-tetrahydrocannabinol, reference compound] | 30 nM | 250 nM | 690 nM | 990 nM | 200 nM | 240 nM | – | 24 µM and 15 µM | 12.2 ± 2.77 µM | 7.69 ± 1.63 µM | – | 0.37 ± 0.08 µM | 1.2 ± 0.27 µM | 0.74 ± 0.16 µM | significant inhibition | 0.85 ± 0.34 µM | 0.34 ± 0.07 µM | strong inhibition | Cmax,u [9]: 20 nM; ka (first-order absorption rate constant) ([9]; value set for the static model): 0.02; BP (blood to plasma ratio) ([9]; value set for the static model, ref Schwilke et al., 2009 [55]): 0.4; unbound fraction (fu,inc) ([4]; HLM): 0.048
8 | Cc1cn([C@H]2C[C@H](N=[N+]=[N-])[C@@H](CO)O2)c(=O)[nH]c1=O [zidovudine] | – | – | – | – | – | – | – | – | – | – | – | – | – | – | – | – | – | – | increase in zidovudine exposure (UGT2B7 [12]): 1.4 fold
